Reference: patent publication US11813257B2, “Methods of treating erythropoietic protoporphyria, X-linked protoporphyria, or congenital erythropoietic porphyria with glycine transport inhibitors” (Disc Medicine, Inc., priority 2020, dated 2023)

Key:
Type in all cases: cell-based
K562 clone-9 cells [1] = test: EPP cellular model: PPIX level by flow cytometry after 96 h compound incubation; details: for EC50: Homo sapiens, K562 clone-9 cells, 96 hours, flow cytometry, read-out: EPP cellular model (EC50 nM), inhibition of PPIX accumulation
Method: Knockout guide sequences were designed to target Exon3 of the Ferrochelatase gene.
K562 cells were cultured in Iscove's Modified Dulbecco's Medium (IMDM) supplemented with 10% fetal bovine serum (FBS), 1% penicillin/streptomycin (PS). CRISPR Cas9 RNP complex with guide RNA was electroporated in K562 cells. Genomic DNA from the pooled cells was isolated, amplified by PCR and sequenced by Sanger sequencing to determine knockout efficiency. Single-cell clones were isolated by fluorescent-assisted cell sorting (FACS). TA cloning and Sanger sequencing were used to confirm single-cell clones and genotypes. Five clones were selected (Clone IDs are: Clone 1-7; Clone 1-9; Clone 1-10, Clone 1-32; Clone 1-51; and K562 WT) for further characterization by western blot (FIG. 1) to determine FECH protein expression levels (Antibody: FECH Antibody Rabbit Polyclonal, Proteintech, 14466-1-AP) and flow cytometry to determine the PPIX levels (FIG. 2). LC/MS/MS confirmed the accumulation of PPIX in clone 1-9 compared to WT K562 cells (FIG. 3).
(§1) 900 μL of K562 clone-9 cells at 2×10^5 cells/mL in IMDM media with 10% FBS and 1% PS were plated into a 24-well plate. After 24-hour incubation, 100 μL of compound in DMSO/media was added in different concentration. The final concentration of DMSO was 0.1%. The compound was incubated for 96 hours at 37° C. Cell viability and cell count were measured by Vi-CELL XR Complete System. Finally, the effect of the compound on PPIX level was determined by flow cytometry.

K562 clone-9 cells [2] = test: Cell viability and cell count by Vi-CELL XR Complete System in EPP cellular model; details: 96 hours, Vi-CELL XR
Method: as §1

[3] = tested on: clone 1-9 cells (EPP K562 cellular model); test: LC/MS/MS of 5-ALA, PPIX and heme levels in the EPP K562 cellular model
[4] = tested on: human cord blood-CD34+ cells; test: Human cord blood CD34+ cells transduced with FECH shRNA lentivirus, erythroid differentiation, flow cytometry; details: 100 nM, 9 days differentiation
Method: To investigate the effects of GlyT1 inhibitors in human hematopoietic stem cells with an EPP phenotype, lentiviral vectors expressing shRNA of FECH were constructed (Table 4) and transduced at 25 MOI into human cord blood-CD34+ cells purchased from Stemexpress.
Transduced CD34+ cells were differentiated in the presence of Bitopertin (100 nM) or DMSO control into erythroid cells for 9 days in StemSpan SFEM II media supplemented with StemSpan Erythroid Expansion Supplement. The erythroid cell antigen profile was analyzed using cytofluorimetric strategy with the following surface markers: CD71 (PE Mouse Anti-Human CD71, BD Biosciences), glycophoryin A (APC Mouse Anti-Human CD235a, BD Biosciences).

Molecule CN(CC[C@@H](Oc1ccc(-c2ccccc2)cc1)c1ccc(F)cc1)CC(=O)O [ALX-5407] has an EC50 (K562 clone-9 cells [1]) of 0.34 nM.
In the case of C[C@H](Oc1ccc(S(C)(=O)=O)cc1C(=O)N1CCN(c2ncc(C(F)(F)F)cc2F)CC1)C(F)(F)F [Bitopertin, bitopertin], the EC50 (K562 clone-9 cells [1]) is reported as 7 nM, the “effect on cell viability” value (K562 clone-9 cells [2]) is reported as “no negative effects on cell viability” and the “5-aminolevulinic acid (5-ALA) level” value [3] is reported as “decreased”. The Heme formation [3] was “minimal effect”, the PPIX level [3] was “decreased” and the “effect on erythroid cell surface markers (CD71, glycophoryin A)” value [4] was “no negative effects”. The “reduction of PPIX accumulation” value ([4]; FECH shRNA transduced CD34+ cells, flow cytometry) was 60%.
For CN(CCOc1ccc(-c2ccc3c(c2)OCO3)cc1C(C)(C)C)CC(=O)O [LY-2365109], the EC50 (K562 clone-9 cells [1]) was 4.1 nM.
Molecule CN(CC[C@@H](Oc1ccc(C(F)(F)F)cc1)c1ccccc1)CC(=O)O [ORG-24598] has an EC50 (K562 clone-9 cells [1]) of 5.6 nM.
With COc1cc(C(=O)NCC2(N(C)C)CCCC2)cc(OC)c1OCc1ccccc1 [ORG-25543] the “inhibition of PPIX accumulation (in words)” value (K562 clone-9 cells [1]; EPP cellular model, highest tested concentration 10 μM for ORG-25543) was “did not show any inhibition” and the EC50 (K562 clone-9 cells [1]) was over 10000 nM.
In the case of COc1ccc2c(c1)CC[C@H](CN(C)CC(=O)O)[C@@H]2c1ccccc1 [ORG-25935], the EC50 (K562 clone-9 cells [1]) is reported as 14 nM.
CN1C[C@@H]2[C@H](C1)[C@H]2CN(Cc1ccc(F)c(Cl)c1)C(=O)c1cn(C)cn1 [PF-03463275] was tested, and the EC50 (K562 clone-9 cells [1]) was 46 nM.
Molecule O=C(N[C@@H](c1ccccc1)[C@@H]1CCCCN1)c1cccc(C(F)(F)F)c1Cl [SSR-504734] has an EC50 (K562 clone-9 cells [1]) of 306 nM.
